Measurements taken from patent US6458773B1, “Nucleoside with anti-hepatitis B virus activity” (Emory University, priority 1998, dated 2002).
Where two headings read alike, the source gives them in different places.

Key:
[1] = Cytotoxicity by uptake of neutral red dye; format: cell-based; details: human, Normal Hep G2 cells
Protocol: (§1) Toxicity analyses were performed in order to assess whether any observed antiviral effects were due to a general effect on cell viability. This can be assessed by the uptake of neutral red dye, a standard and widely used assay for cell viability in a variety of virus-host systems, including HSV (herpes simplex virus) and HIV.
(§2) Toxicity analyses were performed in 96-well flat bottomed tissue culture plates. Cells for the toxicity analyses were cultured and treated with test compounds with the same schedule as used for the antiviral evaluations. Each compound was tested at 4 concentrations, each in triplicate cultures. Uptake of neutral red dye was used to determine the relative level of toxicity. The absorbance of internalized dye at […] (A510) was used for the quantitative analysis. Values are presented as a percentage of the average A510 values (±standard deviations) in 9 separate cultures of untreated cells maintained on the same 96-well plate as the test compounds.

CFU-GM = assay: Human bone marrow clonogenic assay, CFU-GM; format: cell-based; details: effect on cell growth
BFU-E = assay: Human bone marrow clonogenic assay, BFU-E; format: cell-based; details: effect on cell growth
HBV = assay: Anti-HBV activity in transfected 2.2.15 cells (HBV DNA replication intermediates, blot hybridization); format: cell-based, hepatitis B virus; details: read-out: EC50 (μM) R.I.
Protocol: The antiviral evaluations were performed on two separate passages of cells, two cultures per passage (4 cultures total). All wells, in all plates, were seeded at the same density and at the same time.
Due to the inherent variations in the levels of both intracellular and extracellular HBV DNA, only depressions greater than 3.0-fold (for HBV virion DNA) or 2.5-fold (for HBV DNA replication intermediates) from the average levels for these HBV DNA forms in untreated cells are generally considered to be statistically significant [P<0.05] (Korba and Gerin, Antiviral Res. 19: 55-70, 1992). The levels of integrated HBV DNA in each cellular DNA preparation (which remain constant on a per cell basis in these experiments) were used to calculate the levels of intracellular HBV DNA forms, thereby eliminating technical variations inherent in the blot hybridization assays.
Typical values for extracellular HBV virion DNA in untreated cells range from 50 to 150 pg/ml culture medium (average of approximately 76 pg/ml). Intracellular HBV DNA replication intermediates in untreated cells range from 50 to 100 pg/ug cell DNA (average approximately 74 pg/ug cell DNA). In general, depressions in the levels of intracellular HBV DNA due to treatment with antiviral compounds are less pronounced, and occur more slowly, than depressions in the levels of HBV virion DNA.
For reference, the manner in which the hybridization analyses were performed for these experiments results in an equivalence of approximately 1.0 pg intracellular HBV DNA/ug cellular DNA to 2-3 genomic copies per cell and 1.0 pg of extracellular HBV DNA/ml culture medium to 3×10^5 viral particles/ml.
The test compounds were used in the form of stock solutions in DMSO (frozen on dry ice). Daily aliquots of the test samples were made and frozen at −20° C. so that each individual aliquot would be subjected to a single freeze-thaw cycle. The daily test aliquots were thawed, suspended into culture medium at room temperature and immediately added to the cell cultures.
The ability of the active compounds to inhibit the growth of virus in 2.2.15 cell cultures (HepG2 cells transformed with hepatitis virion) was evaluated.

Normal Hep G2 cells [2] = details: neutral red dye uptake; typically observed in these assays (Korba and Gerin 1992); cited from earlier work
Normal Hep G2 cells [3] = assay: Cytotoxicity by uptake of neutral red dye; format: cell-based
Protocol: as §1, §2

[4] = Transfected 2.2.15 cells, HBV DNA replication intermediates (R.I.)

| Compound | CC50 [1] [nM] | EC50 (CFU-GM) [nM] | EC50 (BFU-E) [nM] | EC50 (HBV; Hepatitis B virus, Transfected 2.2.15 cells, HBV DNA replication intermediates (R.I.)) [µM] | concentration giving a 2-fold reduction in dye uptake versus untreated cultures (Normal Hep G2 cells [2]) [µM] | CC50 (Normal Hep G2 cells [3]) [nM] | EC50 (HBV; [4]) [µM] | EC50 (HBV; Hepatitis B virus) [µM] |
| --- | --- | --- | --- | --- | --- | --- | --- | --- |
| [N-]=[N+]=NC1C[C@@H](n2cc(F)c(N)nc2=O)O[C@H]1CO (stereo partly drawn) [L-3-azido-5-FddC, β-L-(3′-azido)-2′,3′-dideoxy-5-fluorocytidine] | > 200000 | 10000 | 10000 | 0.01 | – | – | – | – |
| Nc1ccn([C@H]2CC[C@@H](CO)O2)c(=O)n1 [D-ddC, 2′,3′-dideoxycytidine] | – | 700 | 50 | – | 150 to 190 | – | – | – |
| Nc1nc(=O)n([C@H]2CC[C@@H](CO)O2)cc1F [Compound L-5-FddC] | – | 1200 | 1800 | – | – | > 200000 | 0.05 | – |
| Nc1ccn([C@@H]2CS[C@H](CO)O2)c(=O)n1 (single isomer, unassigned) [Lamivudine (3TC), (−)-enantiomer of cis-2-hydroxymethyl-5-(cytosin-1-yl)-1,3-oxathiolane] | – | – | – | – | – | – | 0.03 | – |
| [N-]=[N+]=N[C@H]1C[C@H](CO)O[C@@H]1n1cc(F)c(N)nc1=O [L-2-azido-5-FddC, 1-(2,3-Dideoxy-2-azido-β-L-erythro-pentofuranosyl)-5-fluorocytosine] | > 200000 | > 10000 | > 10000 | – | – | – | – | 0.1 |
| Cc1cn([C@H]2C[C@H](N=[N+]=[N-])[C@@H](CO)O2)c(=O)[nH]c1=O [Zidovudine (AZT), 3′-azido-3′-deoxythymidine] | – | 1900 | 600 | – | – | – | – | – |
